Molecular target: T1, HTP in D1 cells of left dorsal striatum (Rhodococcus rhodochrous, UniProt P0A3G2, A155T/A167V/A172T/A224E/C128F/C176G/D78G/E160K/E257K/H272N/K175M/K195N/L47V/L88M/N227D/S58T/T264A/Y273L/Y87F)
T1 construct: SSnlg signal peptide (residues 1-49 of mouse neuroligin-1) (N); Thy1 GPI anchor signal (C); expressed in transfected cells; host or cells: mouse neurons transduced in vivo with AAV-DIO-+HTPGPI (D1-Cre dorsal striatum; PV::cre retinal ganglion cells)
Test: histology of tracer dye capture in dorsal striatum
Format: in vivo, mouse
Details: 3 µM dye+30 µM drug, histology 24 hr later
Experimental: FIG. 3A-3F show quantitative engagement of the DART.2 platform. (FIG. 3A) Mice with ^+HTP or ^ddHTP in D1 cells of left dorsal striatum. Open field (1 hr) before and after Alexa488.1^DART.2+YM90K.1^DART.2 (3 µM dye+30 µM drug, 1 μL in 10 min). Histology performed 24 hr later. Left, dTomato expression and Alexa488.1^DART.2 capture from a ^+HTP mouse. […] Right, open-field turning vs dye capture. […] Dye capture can be used as a behavior-independent inclusion criterion (shading), allowing exclusion of 4 ^+HTP mice in this dataset. (FIG. 3B) Older technology lacked tracer^DART. Here, an estimate of technical success with a non-DART dye (fluorogold) was attempted and a numerical algorithm dye-virus overlap was estimated. […] (FIG. 3C and FIG. 3D) Characterization in live mice expressing HTP in dSPNs of the left dorsal striatum. Alexa^DART.2 co-infused with YM90^KDART.2 ligand provided permanent marker of drug capture, tight correspondence between histology and behavioral potency, and 3-fold increase in behavioral potency in comparison to its predecessor. (FIG. 3E and FIG. 3F) YM90^KDART.1 in live mice for comparison with above.
Histology. […] Images were analyzed for pixel intensity using MATLAB.
These advances were combined in a mouse locomotor assay. […] Mice were perfused for histology 24 hrs later, and quantitative measurement of the integrated Alexa capture over the dorsal striatum was performed. […]

T1 sequence (P0A3G2 other isoform, or with tags, fused parts or gaps with the stated changes): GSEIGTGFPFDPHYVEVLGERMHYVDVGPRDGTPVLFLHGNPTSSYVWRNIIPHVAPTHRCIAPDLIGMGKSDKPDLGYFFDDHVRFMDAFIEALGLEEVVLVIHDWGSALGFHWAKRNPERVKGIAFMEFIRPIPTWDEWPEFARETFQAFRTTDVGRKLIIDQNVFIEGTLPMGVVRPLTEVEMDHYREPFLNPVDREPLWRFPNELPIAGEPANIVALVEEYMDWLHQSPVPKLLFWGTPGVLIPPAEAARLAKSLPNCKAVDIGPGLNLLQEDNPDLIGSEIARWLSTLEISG

COc1cc(CCCCl)ccc1CCOCCNC(=O)c1ccc(CNC(=O)CCOCCOCCOCCOCCOCCOCCOCCOCCOCCOCCOCCOCCOCCOCCOCCOCCOCCOCCOCCOCCOCCOCCOCCOCCOCCOCCOCCOCCOCCOCCOCCOCCOCCOCCOCCOCCn2cc(CNC(=O)c3ccc(-c4c5ccc(=N)c(S(=O)(=O)O)c-5oc5c(S(=O)(=O)O)c(N)ccc45)c(C(=O)O)c3)nn2)cc1 [Alexa488.1^DART.2, 6-amino-9-(2-carboxy-4-(((1-(1-(4-((2-(4-(3-chloropropyl)-2-methoxyphenethoxy)ethyl)carbamoyl)phenyl)-3-oxo-6,9, 12, 15, 18, 21, 24, 27, 30, 33, 36, 39, 42, 45, 48, 51, 54, 57, 60, 63, 66, 69, 72, 75, 78, 81, 84, 87, 90, 93, 96, 99, 102, 105, 108, 111-hexatriacontaoxa-2-azatridecahectan-113-yl)-1H-1,2,3-triazol-4-yl)methyl)carbamoyl)phenyl)-3-iminio-5-sulfo-3H-xanthene-4-sulfonate]
dye capture, ddHTP mice: No dye capture detected
